Measured values: paper PMC11365428 (The Journal of Biological Chemistry, 2024)
In brackets after ≈: the same amount, converted by molar mass. Like-named read-outs stand apart in the source and are kept apart here. Non-standard residues stand in square brackets, D forms with d. Residues, ends and D or L forms follow the SMILES beside them. No end group written: not given here. pGlu = O=C1CC[C@@H](C(=O)O)N1

T1: apTKRPR-A (Aplysia californica, UniProt A0AAU7SSZ1)
T1 sequence (A0AAU7SSZ1 1-398): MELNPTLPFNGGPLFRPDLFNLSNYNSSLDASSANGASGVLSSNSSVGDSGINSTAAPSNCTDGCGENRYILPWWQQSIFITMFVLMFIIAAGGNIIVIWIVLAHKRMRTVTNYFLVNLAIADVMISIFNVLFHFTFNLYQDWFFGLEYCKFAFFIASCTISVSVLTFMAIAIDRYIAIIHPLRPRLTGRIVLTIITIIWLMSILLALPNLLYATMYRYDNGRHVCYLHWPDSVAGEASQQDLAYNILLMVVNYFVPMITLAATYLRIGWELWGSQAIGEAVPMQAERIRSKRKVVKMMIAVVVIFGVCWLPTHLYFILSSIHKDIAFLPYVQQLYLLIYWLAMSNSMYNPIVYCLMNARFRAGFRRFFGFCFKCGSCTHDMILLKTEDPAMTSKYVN

T2: apTKRPR-B (Aplysia californica, UniProt A0AAU7STS1)
T2 sequence (A0AAU7STS1 1-447): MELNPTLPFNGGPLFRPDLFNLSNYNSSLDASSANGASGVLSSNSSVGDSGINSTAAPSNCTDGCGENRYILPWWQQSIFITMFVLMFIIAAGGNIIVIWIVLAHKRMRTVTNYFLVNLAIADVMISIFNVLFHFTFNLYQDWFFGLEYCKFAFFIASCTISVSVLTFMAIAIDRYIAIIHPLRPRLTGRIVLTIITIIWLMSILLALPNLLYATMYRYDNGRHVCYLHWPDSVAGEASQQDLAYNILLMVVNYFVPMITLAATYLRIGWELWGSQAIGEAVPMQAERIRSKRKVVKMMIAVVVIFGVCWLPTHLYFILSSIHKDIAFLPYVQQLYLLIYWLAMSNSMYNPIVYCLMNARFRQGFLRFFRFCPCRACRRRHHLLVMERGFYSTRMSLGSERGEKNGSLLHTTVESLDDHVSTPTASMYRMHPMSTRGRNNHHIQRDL

B1: apTKRP-2b analog with Leu instead of Gly at position eight (peptide)
peptide: [pGlu]PHLGFHLSR-NH2
SMILES: CC(C)C[C@H](NC(=O)[C@H](Cc1c[nH]cn1)NC(=O)[C@@H]1CCCN1C(=O)[C@@H]1CCC(=O)N1)C(=O)NCC(=O)N[C@@H](Cc1ccccc1)C(=O)N[C@@H](Cc1c[nH]cn1)C(=O)N[C@@H](CC(C)C)C(=O)N[C@@H](CO)C(=O)N[C@@H](CCCNC(=N)N)C(N)=O
B2: apTKRP-2b analog with Asp instead of Gly at position eight (peptide)
peptide: [pGlu]PHLGFHDSR-NH2
SMILES: CC(C)C[C@H](NC(=O)[C@H](Cc1c[nH]cn1)NC(=O)[C@@H]1CCCN1C(=O)[C@@H]1CCC(=O)N1)C(=O)NCC(=O)N[C@@H](Cc1ccccc1)C(=O)N[C@@H](Cc1c[nH]cn1)C(=O)N[C@@H](CC(=O)O)C(=O)N[C@@H](CO)C(=O)N[C@@H](CCCNC(=N)N)C(N)=O
B3: apTKRP-2b analog with Lys instead of Gly at position eight (peptide)
peptide: [pGlu]PHLGFHKSR-NH2
SMILES: CC(C)C[C@H](NC(=O)[C@H](Cc1c[nH]cn1)NC(=O)[C@@H]1CCCN1C(=O)[C@@H]1CCC(=O)N1)C(=O)NCC(=O)N[C@@H](Cc1ccccc1)C(=O)N[C@@H](Cc1c[nH]cn1)C(=O)N[C@@H](CCCCN)C(=O)N[C@@H](CO)C(=O)N[C@@H](CCCNC(=N)N)C(N)=O

What was measured:
apTKRPR-A = biological target: T1, apTKRPR-A; experiment: IP1 accumulation assay, CHO-K1 cells transiently expressing apTKRPR-A; type: cell-based
Protocol: (§1) To express putative Aplysia receptors transiently in CHO-K1 cells, the cDNAs were subcloned into the pcDNA3.1(+) or pcDNA3.1(+)-FLAG (for ELISA experiments only, see “Cell surface expression analysis by ELISA” section) expression vector. On the day before transfection, the CHO-K1 cells were passaged into 60 mm diameter tissue culture–treated dishes, and the transfection experiments were performed when the cells were grown to 70 to 90% confluence. CHO-K1 cells were transfected with the cDNA plasmid constructs using Turbofect Transfection reagent (Thermo Fisher Scientific, R0531), following the manufacturer’s instructions. […] The DNA/TurboFect mixture dropwise was then added to the dish, and the cells were incubated at 37 °C in a humidified incubator containing 5% CO2 overnight.
(§2) On the third day, the activation of the putative receptors was detected by monitoring intracellular IP1 concentration using an IP-One Gq kit (Cisbio, 62IPAPEB) in Tecan Spark. Except for using 0.5x reagent, all other procedures were performed following the manufacturer’s instructions. IP1 accumulation assay measures the accumulation of IP1, which is hydrolyzed from the second messenger, and inositol triphosphate. Inositol triphosphate is generated by the Gαq pathway when a GPCR is activated by an appropriate ligand.

apTKRPR-B = biological target: T2, apTKRPR-B; experiment: IP1 accumulation assay, CHO-K1 cells transiently expressing apTKRPR-B; type: cell-based
Protocol: as §1, §2

[1] = trifluoroacetate counter ion, ref ChinaPeptides Co., Ltd. certificate of analysis (Fig. S21), cited from earlier work
[2] = biological target: Aplysia tachykinin-related peptide receptor A (apTKRPR-A) (Aplysia californica)
[3] = biological target: Aplysia tachykinin-related peptide receptor B (apTKRPR-B) (Aplysia californica)
[4] = log10 of EC50 in M, negative, IP1 accumulation, CHO-K1, mean ± SD of at least three independent experiments (apTKRP-1 n = 9; apTKRP-2a n = 11; apTKRP-2b n = 19; analogs, apTKRP-2b-OH n = 4), read-out: apTKRPR-A log[EC50] (converted)
[5] = log10 of EC50 in M, negative, IP1 accumulation, CHO-K1, mean ± SD of at least three independent experiments (apTKRP-1 n = 9; apTKRP-2a n = 11; apTKRP-2b n = 19; analogs, apTKRP-2b-OH n = 4), read-out: apTKRPR-B log[EC50] (converted)

| Molecule | EC50 (apTKRPR-A) [nM] | EC50 (apTKRPR-B) [nM] | Solubility ([1]; in 15%ACN/85%H2O) [µg/mL] | also measured |
| --- | --- | --- | --- | --- |
| CC(C)C[C@H](NC(=O)[C@H](Cc1c[nH]cn1)NC(=O)[C@H](C)NC(=O)[C@@H]1CCC(=O)N1)C(=O)NCC(=O)N[C@@H](Cc1ccccc1)C(=O)N[C@@H](Cc1c[nH]cn1)C(=O)NCC(=O)N[C@@H](CO)C(=O)N[C@@H](CCCNC(=N)N)C(N)=O [[Ala^2]apTKRP-2b] ([pGlu]AHLGFHGSR-NH2) | 309 | 33.1 | 1000 (≈ 916 µM) |  |
| CC(C)C[C@H](NC(=O)[C@H](Cc1c[nH]cn1)NC(=O)[C@@H]1CCCN1C(=O)[C@@H]1CCC(=O)N1)C(=O)NCC(=O)N[C@@H](Cc1ccccc1)C(=O)N[C@@H](C)C(=O)NCC(=O)N[C@@H](CO)C(=O)N[C@@H](CCCNC(=N)N)C(N)=O [[Ala^7]apTKRP-2b] ([pGlu]PHLGFAGSR-NH2) | 1070 |  | 1000 (≈ 951 µM) |  |
| CC(C)C[C@H](NC(=O)[C@H](Cc1c[nH]cn1)NC(=O)[C@@H]1CCCN1C(=O)[C@@H]1CCC(=O)N1)C(=O)NCC(=O)N[C@@H](Cc1ccccc1)C(=O)N[C@@H](Cc1c[nH]cn1)C(=O)NCC(=O)N[C@@H](CO)C(=O)N[C@@H](C)C(N)=O [[Ala^10]apTKRP-2b] ([pGlu]PHLGFHGSA-NH2) | > 10000 | > 10000 | 1000 (≈ 969 µM) |  |
| CC(C)C[C@H](NC(=O)[C@H](Cc1c[nH]cn1)NC(=O)[C@@H]1CCCN1C(=O)[C@@H]1CCC(=O)N1)C(=O)NCC(=O)N[C@@H](C)C(=O)N[C@@H](Cc1c[nH]cn1)C(=O)NCC(=O)N[C@@H](CO)C(=O)N[C@@H](CCCNC(=N)N)C(N)=O [[Ala^6]apTKRP-2b] ([pGlu]PHLGAHGSR-NH2) | 1510 | 537 |  | Solubility ([1]; in 13%ACN/87%H2O): 1000 µg/mL (≈ 960 µM) |
| C[C@H](NC(=O)[C@H](Cc1c[nH]cn1)NC(=O)[C@@H]1CCCN1C(=O)[C@@H]1CCC(=O)N1)C(=O)NCC(=O)N[C@@H](Cc1ccccc1)C(=O)N[C@@H](Cc1c[nH]cn1)C(=O)NCC(=O)N[C@@H](CO)C(=O)N[C@@H](CCCNC(=N)N)C(N)=O [[Ala^4]apTKRP-2b] ([pGlu]PHAGFHGSR-NH2) | 9.77 | 1.7 |  | Solubility ([1]; in 13%ACN/87%H2O): 1000 µg/mL (≈ 930 µM) |
| FKPSGFMGSR-NH2 [apTKRP-1] |  |  |  | EC50 (apTKRPR-A; [4]): 145 nM; EC50 (apTKRPR-B; [5]): 24.5 nM |
| CC(C)C[C@H](NC(=O)[C@H](Cc1c[nH]cn1)NC(=O)[C@@H]1CCCN1C(=O)[C@@H]1CCC(=O)N1)C(=O)N[C@@H](C)C(=O)N[C@@H](Cc1ccccc1)C(=O)N[C@@H](Cc1c[nH]cn1)C(=O)NCC(=O)N[C@@H](CO)C(=O)N[C@@H](CCCNC(=N)N)C(N)=O [[Ala^5]apTKRP-2b] ([pGlu]PHLAFHGSR-NH2) | 1660 | 537 | 1000 (≈ 884 µM) |  |
| CC(C)C[C@H](NC(=O)[C@H](Cc1c[nH]cn1)NC(=O)[C@@H]1CCCN1C(=O)[C@@H]1CCC(=O)N1)C(=O)NCC(=O)N[C@@H](Cc1ccccc1)C(=O)N[C@@H](Cc1c[nH]cn1)C(=O)N[C@@H](C)C(=O)N[C@@H](CO)C(=O)N[C@@H](CCCNC(=N)N)C(N)=O [[Ala^8]apTKRP-2b] ([pGlu]PHLGFHASR-NH2) | 20.9 | 3.09 | 1000 (≈ 884 µM) |  |
| CC(C)C[C@H](NC(=O)[C@H](C)NC(=O)[C@@H]1CCCN1C(=O)[C@@H]1CCC(=O)N1)C(=O)NCC(=O)N[C@@H](Cc1ccccc1)C(=O)N[C@@H](Cc1c[nH]cn1)C(=O)NCC(=O)N[C@@H](CO)C(=O)N[C@@H](CCCNC(=N)N)C(N)=O [[Ala^3]apTKRP-2b] ([pGlu]PALGFHGSR-NH2) | 295 | 32.4 | 1000 (≈ 951 µM) |  |
| CC(C)C[C@H](NC(=O)[C@H](Cc1c[nH]cn1)NC(=O)[C@@H]1CCCN1C(=O)[C@@H]1CCC(=O)N1)C(=O)NCC(=O)N[C@@H](Cc1ccccc1)C(=O)N[C@@H](Cc1c[nH]cn1)C(=O)NCC(=O)N[C@@H](C)C(=O)N[C@@H](CCCNC(=N)N)C(N)=O [[Ala^9]apTKRP-2b] ([pGlu]PHLGFHGAR-NH2) | 195 | 17.4 | 1000 (≈ 908 µM) |  |
| CC(C)C[C@H](NC(=O)[C@H](Cc1c[nH]cn1)NC(=O)[C@@H]1CCCN1C(=O)[C@@H]1CCC(=O)N1)C(=O)NCC(=O)N[C@@H](Cc1ccccc1)C(=O)N[C@@H](Cc1c[nH]cn1)C(=O)NCC(=O)N[C@@H](CO)C(=O)N[C@@H](CCCNC(=N)N)C(=O)O [apTKRP-2b-OH] ([pGlu]PHLGFHGSR-OH) |  |  |  | EC50 (apTKRPR-A; IP1 accumulation, CHO-K1, from average log[EC50], read-out: apTKRPR-A [EC50]): > 10000 nM; EC50 (apTKRPR-A; [4]): > 10000 nM; EC50 (apTKRPR-B; IP1 accumulation, CHO-K1, from average log[EC50], read-out: apTKRPR-B [EC50]): > 10000 nM; EC50 (apTKRPR-B; [5]): > 10000 nM |
| B1 |  |  |  | EC50 of IP1 accumulation in CHO-K1 cells expressing the receptor [2]: > 10000 nM; EC50 of IP1 accumulation in CHO-K1 cells expressing the receptor [3]: > 10000 nM |
| B2 |  |  |  | EC50 of IP1 accumulation in CHO-K1 cells expressing the receptor [2]: > 10000 nM; EC50 of IP1 accumulation in CHO-K1 cells expressing the receptor [3]: > 10000 nM |
| B3 |  |  |  | EC50 of IP1 accumulation in CHO-K1 cells expressing the receptor [2]: > 10000 nM; EC50 of IP1 accumulation in CHO-K1 cells expressing the receptor [3]: > 10000 nM |
